Measurements: patent US20040116293A1, “Enhanced herbicide composition” (priority 2002, published 2004)

Assays:
velvetleaf = assay: Herbicidal activity (phytotoxicity, percent leaf area affected) of foliar sprays on velvetleaf; assay type: in vivo, Abutilon theophrasti (velvetleaf); conditions: for Phytotoxicity at 3 days: percent leaf area affected / Phytotoxicity at 5 days: percent leaf area affected / Phytotoxicity at 7 days: percent leaf area affected: alone or + NaSA 800 ppm
Excerpt: (§1) In all examples, deionized ultra-pure water was used in preparing solutions. Spray solutions were used as soon as possible after mixing.
(§2) In all herbicide applications, plants were sprayed with a sufficient volume to insure good coverage, to the point of runoff of the spray solution. […] For all treatments containing both an herbicide and a salicylate or SAR inducer, these materials were mixed and applied in a single spray solution (commonly known as a tank mix). After spraying, plants were moved to the greenhouse and arranged in randomized complete blocks. Plants were evaluated for herbicidal effects (phytotoxicity) after spraying by assessing damage according to percent leaf area affected. All the data were subject to an analysis of variance, and the mean separations were determined with Duncan's multiple range test at α=0.05.

Xanthi-nc tobacco [1] = assay: Herbicidal activity on Xanthi-nc tobacco at three different light levels; assay type: in vivo, Nicotiana tabacum (tobacco); conditions: for Phytotoxicity at 5 days: percent leaf area affected / Phytotoxicity at 9 days: percent leaf area affected / Phytotoxicity at 13 days: percent leaf area affected: atrazine (Aatrex Nine-O) 250 ppm, NaSA 800 ppm
Excerpt: as §1, §2

Xanthi-nc tobacco [2] = assay: Herbicidal activity (phytotoxicity, percent leaf area affected) of foliar sprays on Xanthi-nc tobacco; assay type: in vivo, Nicotiana tabacum (tobacco)
Excerpt: as §1, §2

Xanthi-nc tobacco [3] = assay: Herbicidal activity on Xanthi-nc tobacco at three different temperatures; assay type: in vivo, Nicotiana tabacum (tobacco); conditions: for Phytotoxicity at 3 days: percent leaf area affected / Phytotoxicity at 5 days: percent leaf area affected / Phytotoxicity at 7 days: percent leaf area affected / Phytotoxicity at 10 days: percent leaf area affected: atrazine (Aatrex Nine-O) 250 ppm, NaSA 800 ppm
Excerpt: as §1, §2

[4] = system: corn variety Silver Queen; assay: Foliar sprays on corn variety Silver Queen (crop damage)
Excerpt: as §1, §2
Atrazine is commonly used against weeds in corn and small grain crops.

[5] = atrazine (Aatrex Nine-O) 50 ppm
[6] = atrazine (Aatrex Nine-O) 100 ppm
[7] = atrazine (Aatrex Nine-O) 250 ppm
[8] = illumination 9.8 μmoles·m^−2·s^−1
[9] = illumination 31.3 μmoles·m^−2·s^−1
[10] = atrazine 100 ppm, alone or + NaSA 1600 ppm
[11] = atrazine 250 ppm, alone or + NaSA 1600 ppm
[12] = atrazine 500 ppm, alone or + NaSA 1600 ppm

## CCNc1nc(Cl)nc(NC(C)C)n1 [Atrazine, 6-chloro-N-ethyl-N′(1-methylethyl)-1,3,5-triazine-2,4-diamine]
velvetleaf; [5]
  Phytotoxicity at 3 days: percent leaf area affected: 17.5 B percent
  Phytotoxicity at 5 days: percent leaf area affected: 20 B percent
  Phytotoxicity at 7 days: percent leaf area affected: 25 B percent
velvetleaf; [6]
  Phytotoxicity at 3 days: percent leaf area affected: 35 C percent
  Phytotoxicity at 5 days: percent leaf area affected: 50 D percent
  Phytotoxicity at 7 days: percent leaf area affected: 45 C percent
velvetleaf; [7]
  Phytotoxicity at 3 days: percent leaf area affected: 80 E percent
  Phytotoxicity at 5 days: percent leaf area affected: 97.5 EF percent
  Phytotoxicity at 7 days: percent leaf area affected: 95 D percent
Xanthi-nc tobacco [1]; illumination 0 (Dark)
  Phytotoxicity at 5 days: percent leaf area affected: 0.6 AB percent
  Phytotoxicity at 9 days: percent leaf area affected: 0.6 A percent
Xanthi-nc tobacco [1]; [8]
  Phytotoxicity at 5 days: percent leaf area affected: 0 A percent
  Phytotoxicity at 9 days: percent leaf area affected: 5.3 AB percent
  Phytotoxicity at 13 days: percent leaf area affected: 76.5 B percent
Xanthi-nc tobacco [1]; [9]
  Phytotoxicity at 5 days: percent leaf area affected: 1.9 AB percent
  Phytotoxicity at 9 days: percent leaf area affected: 67.2 B percent
  Phytotoxicity at 13 days: percent leaf area affected: 100%
Xanthi-nc tobacco [1]; illumination 0 (Dark), crop oil control 35.9
  Phytotoxicity at 13 days: percent leaf area affected: 28.1 A percent
Xanthi-nc tobacco [2]; 2 days, atrazine (Aatrex Nine-O) 100 ppm, NaSA 800 ppm, acibenzolar-S-methyl 187 ppm, alone or tank-mixed as labelled
  Phytotoxicity at 2 days: percent leaf area affected: 1 A percent
Xanthi-nc tobacco [2]; atrazine (Aatrex Nine-O) 100 ppm, NaSA 800 ppm, acibenzolar-S-methyl 187 ppm, alone or tank-mixed as labelled
  Phytotoxicity at 3 days: percent leaf area affected: 17 B percent
Xanthi-nc tobacco [2]; 7 days, atrazine (Aatrex Nine-O) 100 ppm, NaSA 800 ppm, acibenzolar-S-methyl 187 ppm, alone or tank-mixed as labelled
  Phytotoxicity at 7 days: percent leaf area affected: 93.9 B percent
Xanthi-nc tobacco [2]; [10]
  Phytotoxicity at 3 days: percent leaf area affected: 1.5 A percent
  Phytotoxicity at 6 days: percent leaf area affected: 66.2 C percent
Xanthi-nc tobacco [2]; [11]
  Phytotoxicity at 3 days: percent leaf area affected: 4.3 AB percent
  Phytotoxicity at 6 days: percent leaf area affected: 77.5 D percent
Xanthi-nc tobacco [2]; [12]
  Phytotoxicity at 3 days: percent leaf area affected: 9.5 B percent
  Phytotoxicity at 6 days: percent leaf area affected: 82.5 DE percent
Xanthi-nc tobacco [3]; 15 C.
  Phytotoxicity at 3 days: percent leaf area affected: 0 A percent
  Phytotoxicity at 5 days: percent leaf area affected: 0 A percent
  Phytotoxicity at 7 days: percent leaf area affected: 5.9 B percent
  Phytotoxicity at 10 days: percent leaf area affected: 39.1 B percent
Xanthi-nc tobacco [3]; 25 C.
  Phytotoxicity at 3 days: percent leaf area affected: 0 A percent
  Phytotoxicity at 5 days: percent leaf area affected: 0.6 A percent
  Phytotoxicity at 7 days: percent leaf area affected: 25 C percent
  Phytotoxicity at 10 days: percent leaf area affected: 84.4 B percent
Xanthi-nc tobacco [3]; 35 C.
  Phytotoxicity at 3 days: percent leaf area affected: 11.0 AB percent
  Phytotoxicity at 5 days: percent leaf area affected: 73.4 C percent
  Phytotoxicity at 7 days: percent leaf area affected: 97.8 C percent
  Phytotoxicity at 10 days: percent leaf area affected: 100 C percent
[4]; atrazine (Aatrex Nine-O) 100 ppm, alone or + NaSA 800 ppm
  Percent leaf area affected at 3 days: 0 A Percent
[4]; atrazine (Aatrex Nine-O) 500 ppm, alone or + NaSA 800 ppm
  Percent leaf area affected at 3 days: 0 A Percent
[4]; atrazine (Aatrex Nine-O) 1000 ppm, alone or + NaSA 800 ppm
  Percent leaf area affected at 3 days: 0 A Percent

## O=C([O-])c1ccccc1O.[Na+] [NaSA, sodium salicylate]
velvetleaf; velvetleaf
  Effect of salicylate on Aatrex Nine-O herbicidal activity (in words): potentiates Aatrex Nine-O®
Xanthi-nc tobacco [1]; darkness
  Effect of added salicylate on atrazine herbicidal activity (in words): conferred some activity in darkness
Xanthi-nc tobacco [1]; low light
  Effect of added salicylate on atrazine herbicidal activity (in words): potentiated atrazine herbicidal activity under low light
Xanthi-nc tobacco [2]; tobacco
  Effect of salicylate on Basagran (bentazon) herbicidal activity (in words): potentiates Basagran®
Xanthi-nc tobacco [2]; tobacco, apparent 3 days after application, persisted through 6 days
  Effect of added salicylate on atrazine herbicidal activity (in words): increased atrazine herbicidal activity
Xanthi-nc tobacco [3]; range of temperatures (15-35 C)
  Effect of salicylate on atrazine herbicidal activity (in words): potentiated atrazine herbicidal activity under a range of temperatures
[4]; NaSA 800 ppm alone
  Percent leaf area affected at 3 days: 0 A Percent
